From patent US6603023B2 (priority 1996, dated 2003)
Where two headings read alike, the source gives them in different places. Marks after values point to notes of the source that are not given here.

How the values were obtained:
MCF-7/Adr = assay: cells; type: cell-based, human; conditions: Table 1C
Experimental: Cultures were fixed with trichloroacetic acid and then stained for 30 min with 0.4% suforhodamine B dissolved in 1% acetic acid. Unbound dye was removed by acetic acid washes, and the protein-bound dye was extracted with an unbuffered Tris base (tris(hydroxy-methyl)aminomethane) for determination of absorbance at 570 nm in a 96-well microtiter plate reader. The experiments were carried out in duplicate. Each run entailed six to seven concentrations of the tested drugs.

P388/Adr = assay: cells; type: cell-based, murine; conditions: Table 1C
Experimental: (§1) The drug-resistant cell lines were continuously cultured in the presence of the selecting agent, AD, DX, VBL or VM to maintain the drug resistant phenotypes. […] All cells were cultured in RPMI 1640-10% FBS at 37° C. 5% CO2 (see below).
(§2) The cells were cultured at an initial density of 5×10^4 cells/mL. They were maintained in a 5% CO2-humidified atmosphere at 37° C. in RPMI-1640 medium (GIBCO-BRL, Gaithersburg, Md.) containing penicillin (100 U/mL), streptomycin ([…]) (GIBCO-BRL) and 10% heat inactivate fetal bovine serum. Culture for cell suspension (such as for CCRF-CEM, P388 and sublines), were performed by the XTT-microculture tetrazonium method (Scudiero, D. A. et al., Cancer Res. 1988, 48, 4827-4833) in duplicate in 96-well microtiter plates.
(§3) 2′,3′-Bis(methoxy-4-nitro-5-sufophenyl)-5-[(phenylamino)carbonyl]2H-tetrazolium hyudroxide (XTT) was prepared at 1 mg/mL in prewarmed (37° C.) medium without serum. Phenazine methosulfate (PMS) and fresh XTT were mixed together to obtain 0.025 mM PMS-XTT solution (25 μL of the stock 5 mM PMS was added per 5 mL of 1 mg/mL XTT). Following a 72 h incubation, 50 μL of the assay aliquots were added to each well of the cell culture. After incubation at 37° C. for 4 h, absorbance at 450 nm and 630 nm was measured with a microplate reader (EL340, Bio-Tek Instruments, Inc., Winooski, Vt.).

DC-3F/ADX = assay: cells; type: cell-based, hamster; conditions: for IC50: read-out: IC50
Experimental: (§4) The DC-3F hamster lung fibroblast cell line and its actinomycin D-selected sublines (DC-3F/ADII and DC-3F/ADX) were obtained from the Memorial Sloan-Kettering Cancer Center (MSKCC).
as §1
(§5) The cytotoxicity of the drug toward the monolayer cell cultures (such as DC-3F, MCF-7, SK-N-As and sublines) was determined in 96-well microtiter plates by the SRB method as described by Skehan and co-workers (Skehan, P., et al., J. Natl. Cancer Inst. 1990, 82, 1107-1112) for measuring the cellular protein content. Cultures were fixed with trichloroacetic acid and then stained for 30 min with 0.4% suforhodamine B dissolved in 1% acetic acid. Unbound dye was removed by acetic acid washes, and the protein-bound dye was extracted with an unbuffered Tris base (tris(hydroxy-methyl)aminomethane) for determination of absorbance at 570 nm in a 96-well microtiter plate reader. The experiments were carried out in duplicate. Each run entailed six to seven concentrations of the tested drugs. Data were analyzed with the median-effect plot (Chou, T.-C. & Talalay, P. T. (1984) Adv. Enzyme Regul. 22, 27-55) using a previously described computer program (Chou, J., & Chou T.-C. 1987, Dose-effect analysis with microcomputers: Quantitation of ED50, synergism, antagonism, low-dose risk, reception-ligand binding and enzyme kinetics, IBM-PC software and manual, Biosoft, Cambridge, U.K.).
Concerning Table 3, experiments were carried out using the cell lines DC-3F (parent hamster lung cells), DC-3F/ADII (moderate multidrug-resistant (MDR) cells) and DC-3F/ADX (very strong MDR cells).

[1] = system: human neuroblastoma SK-N-As; assay: SRB cytotoxicity, SK-N-As; type: cell-based; conditions: Table 1C; SRB, 72 h; read-out: IC50
Experimental: as §4, §1, §5

[2] = system: CCRF-CEM human T-cell acute lymphoblastic leukemia cell line; assay: XTT cytotoxicity (cell growth inhibition), CCRF-CEM
Experimental: as §4, §1, §2, §3

SK-N-FI = assay: cells; type: cell-based, human; conditions: Table 1C
Experimental: as §1, §5

MCF-7 = assay: SRB cytotoxicity, MCF-7; type: cell-based, human; conditions: Table 1C; SRB, 72 h; read-out: IC50
Experimental: as §5

[3] = system: DC-3F hamster lung fibroblast cell line; assay: SRB cytotoxicity, DC-3F; type: cell-based; conditions: read-out: IC50
Experimental: as §4, §1, §5

CCRF-CEM/Taxol® = assay: cells; type: cell-based, human
Experimental: as §1, §2, §3

CCRF-CEM/VBL100 = assay: cells; type: cell-based, human
Experimental: as §1, §2, §3

CCRF-CEM/VM1 = assay: cells; type: cell-based, human
Experimental: as §1, §2, §3

murine leukemic P388/0 = assay: XTT cytotoxicity, P388/0; type: cell-based; conditions: Table 1C; XTT, 72 h; read-out: IC50
Experimental: as §4, §1, §2, §3

[4] = Table 1A, XTT, 72 h, read-out: IC50

C/C(=C\c1csc(C)n1)[C@@H]1C[C@@H]2O[C@@H]2CCC[C@H](C)[C@H](O)[C@@H](C)C(=O)C(C)(C)[C@@H](O)CC(=O)O1 [Epothilone A, epothilone A]
folds of resistance (IC50 ratio vs parent cell line) (MCF-7/Adr; MCF-7/Adr vs MCF-7): (3.1x)# | IC50 (MCF-7/Adr; SRB, 72 h, read-out: IC50): 9.4 nM | folds of resistance (IC50 ratio vs parent cell line) (P388/Adr; P388/Adr vs P388/O): (5.3x)# | IC50 (P388/Adr; XTT, 72 h, read-out: IC50): 1 nM | folds of resistance (IC50 ratio vs parent cell line) (DC-3F/ADX; Table 1C, DC-3F/ADX vs DC-3F): (14.5x)# | IC50 (DC-3F/ADX; Table 1C, SRB, 72 h): 53 nM | IC50 (DC-3F/ADX; relative potency ordering): 60 nM | IC50 [1]: 12 nM | IC50 [2]: 2.7 nM | IC50 ([2]; Table 1, XTT): 3 nM | IC50 ([2]; Table 7, CEM): 2.9 nM | IC50 ([2]; read-out: IC50 (A), Table 2A, parent cell line): 3.2 nM | folds of resistance (IC50 ratio vs parent cell line) (SK-N-FI; SK-N-FI vs SK-N-As): (1.9x)# | IC50 (SK-N-FI; SRB, 72 h, read-out: IC50): 23 nM | IC50 (MCF-7): 3 nM | IC50 ([3]; Table 1C, SRB, 72 h): 3.7 nM | IC50 ([3]; relative potency ordering): 3.6 nM | (C)/(A) IC50 ratio (CCRF-CEM/Taxol®): 1.4 | IC50 (CCRF-CEM/Taxol®; [4]): 3.7 nM | (B)/(A) ratio (fold resistance >1, collateral sensitivity <1) (CCRF-CEM/VBL100): (7.5)^a | fold resistance (cross-resistance) vs parent CCRF-CEM (CCRF-CEM/VBL100; CCRF-CEM/VBL100 MDR cells): 8 fold | IC50 (CCRF-CEM/VBL100; Table 1, XTT, read-out: IC50): 20 nM | (B)/(A) IC50 ratio (CCRF-CEM/VBL100; Table 1A, CCRF-CEM/VBL100 vs CCRF-CEM): 7.4 | IC50 (CCRF-CEM/VBL100; [4]): 20 nM | IC50 (CCRF-CEM/VBL100; Table 2A, MDR cell line, read-out: IC50 (B)): 24 nM | IC50 (CCRF-CEM/VBL100; Table 7, CEM/VBL, read-out: IC50): 20.3 nM | IC50 (CCRF-CEM/VBL100; read-out: IC50): 20 nM | (C)/(A) ratio (fold resistance >1, collateral sensitivity <1) (CCRF-CEM/VM1): (1.06)^a | IC50 (CCRF-CEM/VM1; Table 1, XTT, read-out: IC50): 3 nM | (D)/(A) IC50 ratio (CCRF-CEM/VM1; Table 1A, CCRF-CEM/VM1 vs CCRF-CEM): 2.3 | IC50 (CCRF-CEM/VM1; [4]): 6.1 nM | IC50 (CCRF-CEM/VM1; Table 2A, Topo II gene mutated cell line, read-out: IC50 (C)): 3.4 nM | IC50 (murine leukemic P388/0): 1.8 nM
